Here are results for 16 compounds from PMC8409965, “Three-component Castagnoli-Cushman reaction with ammonium acetate delivers 2-unsubstituted isoquinol-1-ones as potent inhibitors of poly(ADP-ribose) polymerase (PARP)” (Journal of Enzyme Inhibition and Medicinal Chemistry, 2021).

Data set [1] addresses T1, PARP2 (Homo sapiens, UniProt Q9UGN5).
T1 construct: purchased BPS Bioscience (San Diego, CA)
Description: PARP2 colorimetric activity assay kit (BPS Bioscience). Type of data set: biochemical. The note with it: for IC50: dose-response, mean ± SD, n = 3; for SI (selectivity index) IC50(PARP1)/IC50(PARP2): values greater than 1.0 indicate selectivity towards PARP2.

The target of data set [2] is T2, PARP1 (Homo sapiens, UniProt P09874).
T2 construct: purchased BPS Bioscience (San Diego, CA)
Description: PARP1 colorimetric activity assay kit (BPS Bioscience). The format is biochemical. To be noted: dose-response, mean ± SD, n = 3.

Data set [3] deals with T2, PARP1. The description is as above. The note with it: 1 µM concentration of the inhibitor, mean ± SD, n = 3. The format is biochemical. The procedure: The initial screening was performed against PARP1 at 1 µM concentration of each compound, in triplicate (n = 3) measurements.
In data set [4] the target is T1, PARP2. More on the design: method as in PMID 34482781. The note with it: values greater than 1.0 indicate selectivity towards PARP2; cited from earlier work.
Data set [5] is described as follows: Solubility in pH 7.4 phosphate buffer. Type of data set: physicochemical. The note with it: aqueous buffer; pH 7.4 0.01 M phosphate buffer solution.
Data set [6] can be described thus: Stability in the presence of hepatic S9 fraction. Type of data set: in vitro ADME.
The nature of data set [7]: Stability in the presence of human liver microsomes. Type of data set: in vitro ADME.
The nature of data set [8]: Stability in human plasma. The format is in vitro ADME. The note with it: after incubation (4 h) with human plasma.
A short description of another data set: Plasma protein binding. Type of data set: in vitro ADME.

Like-named read-outs stand apart in the source and are kept apart here.

T1 sequence (Q9UGN5 whole entry): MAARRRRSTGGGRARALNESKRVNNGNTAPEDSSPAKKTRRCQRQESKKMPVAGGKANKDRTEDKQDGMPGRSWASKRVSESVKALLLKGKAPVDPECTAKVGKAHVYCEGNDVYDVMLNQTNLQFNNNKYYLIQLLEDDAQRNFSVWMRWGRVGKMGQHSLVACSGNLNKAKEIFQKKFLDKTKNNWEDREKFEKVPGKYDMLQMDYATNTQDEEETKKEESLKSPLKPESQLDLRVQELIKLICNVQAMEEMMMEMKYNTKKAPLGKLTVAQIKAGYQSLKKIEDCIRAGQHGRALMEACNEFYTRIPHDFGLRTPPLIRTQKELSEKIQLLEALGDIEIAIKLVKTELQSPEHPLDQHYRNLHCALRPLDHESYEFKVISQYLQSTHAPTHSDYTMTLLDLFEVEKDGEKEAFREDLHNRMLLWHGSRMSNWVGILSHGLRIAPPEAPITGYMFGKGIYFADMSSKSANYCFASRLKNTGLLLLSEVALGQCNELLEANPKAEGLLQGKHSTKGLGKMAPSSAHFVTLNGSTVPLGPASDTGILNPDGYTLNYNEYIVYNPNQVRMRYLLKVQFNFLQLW
T2 sequence (P09874 whole entry): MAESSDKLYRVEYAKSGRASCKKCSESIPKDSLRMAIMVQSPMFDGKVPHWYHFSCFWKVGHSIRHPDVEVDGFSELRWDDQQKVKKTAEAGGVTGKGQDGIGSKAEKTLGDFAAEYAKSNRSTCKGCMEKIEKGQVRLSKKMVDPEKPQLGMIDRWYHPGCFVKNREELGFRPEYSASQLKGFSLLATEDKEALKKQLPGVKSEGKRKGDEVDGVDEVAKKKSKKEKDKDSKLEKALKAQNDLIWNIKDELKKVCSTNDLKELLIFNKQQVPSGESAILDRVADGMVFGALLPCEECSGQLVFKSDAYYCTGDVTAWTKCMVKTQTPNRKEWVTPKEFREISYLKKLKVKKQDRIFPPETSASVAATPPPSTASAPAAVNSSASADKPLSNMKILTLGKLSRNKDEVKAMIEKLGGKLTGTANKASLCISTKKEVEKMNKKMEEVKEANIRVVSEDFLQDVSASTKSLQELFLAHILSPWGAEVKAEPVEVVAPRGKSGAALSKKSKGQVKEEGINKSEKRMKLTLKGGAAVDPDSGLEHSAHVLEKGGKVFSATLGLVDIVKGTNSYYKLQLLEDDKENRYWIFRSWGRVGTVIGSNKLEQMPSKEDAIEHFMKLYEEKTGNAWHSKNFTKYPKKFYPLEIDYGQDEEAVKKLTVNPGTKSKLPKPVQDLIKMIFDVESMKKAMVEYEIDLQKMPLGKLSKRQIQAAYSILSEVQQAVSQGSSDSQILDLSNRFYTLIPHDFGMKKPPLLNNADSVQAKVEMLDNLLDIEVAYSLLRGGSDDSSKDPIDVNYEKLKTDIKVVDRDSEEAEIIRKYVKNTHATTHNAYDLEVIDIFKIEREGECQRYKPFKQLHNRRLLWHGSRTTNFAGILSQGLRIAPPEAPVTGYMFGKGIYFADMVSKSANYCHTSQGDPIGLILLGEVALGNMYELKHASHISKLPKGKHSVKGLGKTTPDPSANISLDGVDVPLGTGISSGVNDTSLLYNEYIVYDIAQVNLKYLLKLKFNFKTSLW

With `CC[C@H]1NC(=O)c2ccccc2[C@@H]1C(=O)N1CCC(N2CCCCC2)CC1` [Compound 2c], on PARP2 [1], the IC50 came to 11 ± 2.2 nM and the “SI (selectivity index) IC50(PARP1)/IC50(PARP2)” value is 4.05. Also, at PARP1 [2], inhibition was half-maximal at 44.6 ± 5.6 nM (IC50).
The corresponding values for `C[C@H]1NC(=O)c2ccccc2[C@@H]1C(=O)N1CCC(N2CCCCC2)CC1` [Compound 2m] are 29.2 ± 3.4 nM, 3.28 and 95.7 ± 17.7 nM.
The compound `O=C1NC2(CCCCC2)[C@@H](C(=O)N2CCC(N3CCCCC3)CC2)c2ccccc21` [Compound 2i] showed an inhibition at 1 µM at PARP1 [3] of 12.1 ± 7.2%.
On to `O=C1N[C@H](c2ccc(F)cc2)[C@@H](C(=O)N2CCC(N3CCCCC3)CC2)c2ccccc21` [Compound 2b], for which, at PARP2 [1], it took 39.9 ± 7.3 nM to reach half-maximal inhibition (IC50) and the “SI (selectivity index) IC50(PARP1)/IC50(PARP2)” value turned out to be 1.39. On PARP1 [2], this compound displayed an IC50 of 55.4 ± 8.8 nM.
`CC(C)(C)[C@H]1NC(=O)c2ccccc2[C@@H]1C(=O)N1CCC(N2CCCCC2)CC1` [Compound 2f]: the inhibition at 1 µM on PARP1 [3] was 24.1 ± 6%.
Take `O=C1N[C@H](c2ccccc2)[C@@H](C(=O)N2CCC(N3CCCCC3)CC2)c2ccccc21` [Compound 2a]: on PARP2 [1], the IC50 was 69.5 ± 12.8 nM and the “SI (selectivity index) IC50(PARP1)/IC50(PARP2)” value turned out to be 1.26. The midpoint of inhibition against PARP1 [2], the IC50, lay at 87.9 ± 10.2 nM.
Regarding `O=C1NC2(CCOCC2)[C@@H](C(=O)N2CCC(N3CCCCC3)CC2)c2ccccc21` [Compound 2j], at 1 µM the inhibition at PARP1 [3] was 5.1 ± 6.6%.
As to `CC(C)[C@H]1NC(=O)c2ccccc2[C@@H]1C(=O)N1CCC(N2CCCCC2)CC1` [Compound 2d], at PARP1 [2], the IC50 came to 160 ± 18.6 nM.
As to `CC1(C)NC(=O)c2ccccc2[C@@H]1C(=O)N1CCC(N2CCCCC2)CC1` [Compound 2h], on PARP1 [3], testing at 1 µM gave an inhibition of 4 ± 7.4%.
Take `O=C1NC2(CCCC2)[C@@H](C(=O)N2CCC(N3CCCCC3)CC2)c2ccccc21` [Compound 2k]: the inhibition at 1 µM at PARP1 [3] came out at 10.6 ± 9.7%.
In the case of `CC(C)C[C@H]1NC(=O)c2ccccc2[C@@H]1C(=O)N1CCC(N2CCCCC2)CC1` [Compound 2g], at PARP2 [1], the IC50 stood at 105 ± 20.8 nM and the “SI (selectivity index) IC50(PARP1)/IC50(PARP2)” value was 0.83. For the same compound, the concentration for half-maximal inhibition (IC50) on PARP1 [2] is 87 ± 8.3 nM.
On to `O=C1N[C@H](C2CCCC2)[C@@H](C(=O)N2CCC(N3CCCCC3)CC2)c2ccccc21` [Compound 2l], for which the IC50 against PARP2 [1] and against PARP1 [2] was greater than 500 nM in each case.
On to `O=C1NCC(C(=O)N2CCC(N3CCCCC3)CC2)c2ccccc21` (stereo not shown) [Compound 1a], for which the “SI (selectivity index) IC50(PARP1)/IC50(PARP2)” value on PARP2 [4] is reported as 2.23.
With `O=C1N[C@H](C2CC2)[C@@H](C(=O)N2CCC(N3CCCCC3)CC2)c2ccccc21` [Compound 2e], at PARP2 [1], 18.3 ± 4.5 nM corresponded to half-maximal inhibition (IC50) and the “SI (selectivity index) IC50(PARP1)/IC50(PARP2)” value was found to be 1.44. At PARP1 [2], this compound gave an IC50 of 26.4 ± 4.1 nM.
As for `O=C(c1cc(Cc2n[nH]c(=O)c3ccccc23)ccc1F)N1CCN(C(=O)C2CC2)CC1` [Olaparib, reference compound], the solubility in data set [5] is greater than 100 µM. Further, in data set [6], the “Stability S9” value is listed as 1.1 µL/min/mg. Further, the “Stability HLM” value in data set [7] was found to be 15 µL/min/mg. The “Stability Plasma (% compound remaining)” value in data set [8] amounted to 100%. Besides, the “PPB (plasma protein binding)” value in the data set “Plasma protein binding” was 90.2 % bound.
`O=C1NC(C2CC2)C(C(=O)N2CCC(N3CCCCC3)CC2)c2ccc(F)cc21` (stereo not shown) [Compound 6, 4-([1,4′-bipiperidine]-1′-carbonyl)-3-cyclopropyl-7-fluoro-3,4-dihydroisoquinolin-1(2H)-one]: the values for the IC50 against PARP2 [1] and against PARP1 [2] were 4.3 ± 0.5 nM and 22 ± 3.2 nM, respectively. In addition, the “SI (selectivity index) IC50(PARP1)/IC50(PARP2)” value on PARP2 [1] is 5.1. In data set [5], the solubility was greater than 100 µM. Moreover, in [6], the “Stability S9” value came to 0.1 µL/min/mg. The “Stability HLM” value in [7] turned out to be 3.8 µL/min/mg. In addition, in data set [8], the “Stability Plasma (% compound remaining)” value is on record as 100%. The “PPB (plasma protein binding)” value in “Plasma protein binding” is listed as 71.0 % bound.
